Data reported in patent US9951149B2, “Reversible heparin molecules and methods of making and using the same” (The University of North Carolina at Chapel Hill, priority 2013, dated 2018).
“Also recorded” adds a separate entry of the source.

Assays:
[1] = target: antithrombin (AT) (Homo sapiens, UniProt P01008); assay: Binding affinity of LMWHs to antithrombin by affinity co-electrophoresis; conditions: 35S-labeled compounds; average of two or three determinations
Description: The dissociation constant (Kd) of each sample and AT was determined using affinity co-electrophoresis (Lee, M. K. & Lander, A. D., Proc. Natl. Acad. Sci. USA 88, 2768-2772, 1991). Approximately 1500-2500 cpm of ^35S-labeled LMWH Compounds 1 to 5 was loaded per lane with zones of AT at concentrations 0, 8, 16, 32, 60, 120, 250, 500 and 1000 nM. The gel was performed at 300 mA for 2 h, dried and analyzed on a Phospholmager (Amersham Biosciences, Wauwatosa, Wis., United States of America Storm 860). The retardation coefficient was calculated at R=(M0−M)/M0, where M0 is the mobility of the polysaccharide through the zone without AT, and M is the mobility of the sample through each separation zone. The retardation coefficient was then plotted against the retardation coefficient divided by its respective concentration of AT. The slope of the line represents −1/Kd.

[2] = Clearance of LMWHs in vivo: retention of 35S-labeled material in mouse liver; conditions: BALB/c mice, lateral tail vein injection, 12 min (FIG. 4A)
Description: The mouse experiment was approved by the University of Nebraska Animal Care and Use Committees. Five to six week old BALB/c mice (Harlan Laboratories, Indianapolis, Ind., United States of America) weighing 18-20 g were anesthetized in a small 34° C. chamber with a flow of oxygen containing 4% isoflurane. Once the mice were unconscious, they were individually placed on a heated pad with a nose cone fitted over their snout with a constant flow of oxygen containing 2% isoflurane. A specific amount of ^35S-labeled LMWH Compound, LMWH, or UFH was injected via the lateral tail vein using a 27G1/2 needle mounted on a 1 ml syringe. The labeled material was allowed to circulate in the blood for 12 min while the mouse lay unconscious. The abdominal cavity was exposed by incision and the liver was collected, washed, and weighed. Approximately 100 mg from each of the lobes was homogenized in 0.75 ml 1% NP-40 and then centrifuged at 12,000×g for 2 min to pellet insoluble material. The supernatant was then added to 4 ml scintillation fluid, mixed for 30 min by rocking and then radioactivity was assessed by a Beckman Coulter LS6500 scintillation counter. The data is presented as the percentage of CPM in total liver divided by total CPM injected±standard error of 3-5 mice per ligand.

[3] = tested on: human factor Xa; assay: Neutralization of LMWHs by protamine in vitro (anti-Xa activity); assay type: biochemical; conditions: human plasma, protamine 0-90 μg/ml (FIG. 4B)
Description: Determination of the in vitro and ex vivo anti-Xa activity. Assays were based on a previously published method (Zhang, L. et al., J. Biol. Chem. 276, 42311-42321, 2001; Duncan et al., Biochim Biophys Acta 1671, 34-43, 2004). Briefly, human factor Xa (Enzyme Research Laboratories, South Bend, Ind., United States of America) was diluted to 50 Uml^−1 with PBS. The chromogenic substrates, S-2765 was from Diapharma (Westchester, Ohio, United States of America) and made up at 1 mgml^−1 in water. UFH (from US Pharmacopea), LOVENOX® (from local pharmacy) and LMWH Compounds 1 to 5) was dissolved in PBS at various concentrations (3 to 600 μgml^−1). The reaction mixture, which consisted of 20 μl of human plasma (Sigma-Aldrich, St. Louis, Mo., United States of America) and 8 μl of the solution containing the sample, was incubated at room temperature for 5 min. Factor Xa (100 μl) was then added. After incubating at room temperature for 4 min, 30 μl of S-2765 substrate was added. The absorbance of the reaction mixture was measured at 405 nm continuously for 5 min. The absorbance values were plotted against the reaction time. The initial reaction rates as a function of concentration were used to calculate the IC50 values.
The procedures followed a previous publication (Sundaram, M. et al., Proc. Natl. Acad. Sci. 100, 651-656, 2003). The LMWH Compounds and protamine chloride (Sigma-Aldrich) were dissolved in PBS. The concentrations of the LMWH samples for each Compound were different because each Compound has different IC50 value for the anti-Xa activity. […] The mixture (30 μl) was then subjected to anti-Xa activity measurement as described above.

Sequence of antithrombin (AT) (P01008 33-464): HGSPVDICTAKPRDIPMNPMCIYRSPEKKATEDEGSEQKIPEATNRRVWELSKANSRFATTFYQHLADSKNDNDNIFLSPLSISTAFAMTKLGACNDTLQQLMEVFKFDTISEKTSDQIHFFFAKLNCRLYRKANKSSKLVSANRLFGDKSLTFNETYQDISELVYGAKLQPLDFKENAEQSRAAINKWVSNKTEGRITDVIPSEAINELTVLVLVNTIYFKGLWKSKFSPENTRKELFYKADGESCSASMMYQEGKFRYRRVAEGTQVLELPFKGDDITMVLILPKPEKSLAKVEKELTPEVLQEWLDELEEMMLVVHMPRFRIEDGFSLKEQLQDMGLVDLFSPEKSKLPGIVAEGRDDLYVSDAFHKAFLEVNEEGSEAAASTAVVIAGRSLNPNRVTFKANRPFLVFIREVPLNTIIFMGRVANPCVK

| Kd [1] | Structure (SMILES) | retention in the liver [2] | in vitro reversibility of anti-Xa activity by protamine [3] |
| --- | --- | --- | --- |
| 7 nM | O=C(O)C1OC(OC2C(COS(=O)(=O)O)OC(OC3C(C(=O)O)OC(OC4C(COS(=O)(=O)O)OC(OC5C(C(=O)O)OC(Oc6ccc([N+](=O)[O-])cc6)C(O)C5O)C(NS(=O)(=O)O)C4O)C(OS(=O)(=O)O)C3O)C(NS(=O)(=O)O)C2OS(=O)(=O)O)C(O)C(O)C1OC1OC(COS(=O)(=O)O)C(O)C(O)C1NS(=O)(=O)O (stereo not drawn) [Compound 1] | very low level of retention in the liver | Unlike Compounds 1, 2, and 3, Compound 4 was partially reversed by protamine |
| 8 nM | O=C(O)C1OC(OC2C(COS(=O)(=O)O)OC(OC3C(C(=O)O)OC(OC4C(COS(=O)(=O)O)OC(OC5C(C(=O)O)OC(OC6C(COS(=O)(=O)O)OC(OC7C(C(=O)O)OC(Oc8ccc([N+](=O)[O-])cc8)C(O)C7O)C(NS(=O)(=O)O)C6O)C(OS(=O)(=O)O)C5O)C(NS(=O)(=O)O)C4O)C(OS(=O)(=O)O)C3O)C(NS(=O)(=O)O)C2OS(=O)(=O)O)C(O)C(O)C1OC1OC(COS(=O)(=O)O)C(O)C(O)C1NS(=O)(=O)O (stereo not drawn) [Compound 2] | very low level of retention in the liver | Unlike Compounds 1, 2, and 3, Compound 4 was partially reversed by protamine |
| 5 nM | O=C(O)C1OC(OC2C(COS(=O)(=O)O)OC(OC3C(C(=O)O)OC(OC4C(COS(=O)(=O)O)OC(OC5C(C(=O)O)OC(OC6C(COS(=O)(=O)O)OC(OC7C(C(=O)O)OC(OC8C(COS(=O)(=O)O)OC(OC9C(C(=O)O)OC(Oc%10ccc([N+](=O)[O-])cc%10)C(O)C9O)C(NS(=O)(=O)O)C8O)C(OS(=O)(=O)O)C7O)C(NS(=O)(=O)O)C6O)C(OS(=O)(=O)O)C5O)C(NS(=O)(=O)O)C4O)C(OS(=O)(=O)O)C3O)C(NS(=O)(=O)O)C2OS(=O)(=O)O)C(O)C(O)C1OC1OC(COS(=O)(=O)O)C(O)C(O)C1NS(=O)(=O)O (stereo not drawn) [Compound 3] | retained in the liver; also recorded: internalized in mice liver | Unlike Compounds 1, 2, and 3, Compound 4 was partially reversed by protamine |

| Structure (SMILES) | Kd [1] | retention in the liver [2] | in vitro reversibility of anti-Xa activity by protamine [3] |
| --- | --- | --- | --- |
| CC(=O)NC1C(OC2C(C(=O)O)OC(OC3C(COS(=O)(=O)O)OC(OC4C(C(=O)O)OC(OC5C(COS(=O)(=O)O)OC(OC6C(C(=O)O)OC(OC7C(COS(=O)(=O)O)OC(OC8C(C(=O)O)OC(OC9C(COS(=O)(=O)O)OC(OC%10C(C(=O)O)OC(OC%11C(COS(=O)(=O)O)OC(OC%12C(C(=O)O)OC(Oc%13ccc([N+](=O)[O-])cc%13)C(O)C%12O)C(NS(=O)(=O)O)C%11O)C(OS(=O)(=O)O)C%10O)C(NS(=O)(=O)O)C9O)C(OS(=O)(=O)O)C8O)C(NS(=O)(=O)O)C7O)C(OS(=O)(=O)O)C6O)C(NS(=O)(=O)O)C5O)C(OS(=O)(=O)O)C4O)C(NS(=O)(=O)O)C3OS(=O)(=O)O)C(O)C2O)OC(COS(=O)(=O)O)C(O)C1O (stereo not drawn) [Compound 4] | 30 nM | retained in the liver; also recorded: internalized in mice liver | partially reversed by protamine |
| CC(=O)NC1C(OC2C(C(=O)O)OC(OC3C(COS(=O)(=O)O)OC(OC4C(C(=O)O)OC(OC5C(COS(=O)(=O)O)OC(OC6C(C(=O)O)OC(OC7C(COS(=O)(=O)O)OC(OC8C(C(=O)O)OC(OC9C(COS(=O)(=O)O)OC(OC%10C(C(=O)O)OC(OC%11C(COS(=O)(=O)O)OC(OC%12C(C(=O)O)OC(Oc%13ccc([N+](=O)[O-])cc%13)C(O)C%12O)C(NS(=O)(=O)O)C%11O)C(OS(=O)(=O)O)C%10O)C(NS(=O)(=O)O)C9OS(=O)(=O)O)C(OS(=O)(=O)O)C8O)C(NS(=O)(=O)O)C7O)C(OS(=O)(=O)O)C6O)C(NS(=O)(=O)O)C5O)C(OS(=O)(=O)O)C4O)C(NS(=O)(=O)O)C3OS(=O)(=O)O)C(O)C2O)OC(COS(=O)(=O)O)C(O)C1O (stereo not drawn) [Compound 5] | 28 nM | retained in the liver; also recorded: internalized in mice liver | same protamine reversibility as UFH and greater reversibility than LOVENOX®; also recorded: can be reversed by protamine |
